Values quoted from earlier work, collected in patent US11504319B2, “Process of coloring keratinous material comprising the use of an organosilicon compound, an effect pigment, a further coloring compound and a film-forming polymer III” (Henkel AG & Co. KGaA, priority 2019, dated 2022).

Settings: 25° C.

Row | SMILES | solubility in water | solubility in water (in words)
1 | O=C([O-])c1c(Cl)c(Cl)c(Cl)c(Cl)c1-c1c2c(Br)cc(=O)c(Br)c-2oc2c(Br)c(O)cc(Br)c12.O=C([O-])c1c(Cl)c(Cl)c(Cl)c(Cl)c1-c1c2c(Br)cc(=O)c(Br)c-2oc2c(Br)c(O)cc(Br)c12.[Na+].[Na+] [Acid Red 92, disodium salt of 3,4,5,6-tetrachloro-2-(1,4,5,8-tetrabromo-6-hydroxy-3-oxoxanthen-9-yl)benzoic acid] | greater than 10 g/L | 
2 | O=C([O-])C1=NN(c2ccc(S(=O)(=O)[O-])cc2)C(=O)C1N=Nc1ccc(S(=O)(=O)[O-])cc1.[Na+].[Na+].[Na+] (stereo not shown) [Acid Yellow 23, trisodium salt of 4,5-dihydro-5-oxo-1-(4-sulfophenyl)-4-((4-sulfophenyl)azo)-1H-pyrazole-3-carboxylic acid] |  | highly soluble
3 | O=S(=O)([O-])c1ccc(N=Nc2c(O)ccc3ccccc23)cc1.[Na+] [Acid Orange 7, sodium salt of 4-[(2-hydroxy-1-naphthyl)azo]benzene sulphonate] | more than 7 g/L | 
4 | Nc1cc(S(=O)(=O)[O-])cc2cc(S(=O)(=O)[O-])c(N=Nc3ccccc3)c(O)c12.[Na+].[Na+] [Acid Red 33, disodium salt of 5-amino-4-hydroxy-3-(phenylazo)-naphthalene-2,7-disulphonate] | 2500 µg/mL | 
